Data as given in patent US20150105252A1, “SUBSTITUTED PYRAZOLES AS HERBICIDES” (E I DU PONT DE NEMOURS AND COMPANY, priority 2013, published 2015).

Tests used:
lambsquarters = experiment: Test C postemergence; assay type: in vivo, Chenopodium album; conditions: for Plant response rating (scale of 0 to 100 where 0 is no effect and 100 is complete control), Lambsquarters: Postemergence, 31 g ai/ha, visually evaluated after 13 to 15 days; for Lambsquarters plant response rating / Plant response rating, Lambsquarters: postemergence; for Lambsquarters plant response rating: 62 g ai/ha, scale 0 to 100
In short: (§1)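 Visual control ratings on a 0–100 scale (100 = complete control) made against untreated controls after 13 to 15 days in greenhouse. Compounds applied in surfactant-containing solvent mixture, either preemergence to loam/sand-sown seeds or postemergence to 1- to 4-leaf plants (2–18 cm) in peat medium.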

velvetleaf [1] = experiment: Test A postemergence; assay type: in vivo, Abutilon theophrasti
In short: (§2)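 Ratings express plant response from 0 (no effect) to 100 (complete control), judged visually against untreated controls after approximately 10 days in the greenhouse. Preemergence applications were made as directed soil sprays onto seeded loam–sand mix, and postemergence applications onto 2–10 cm plants at one- to two-leaf stage.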

corn [2] = experiment: Test A postemergence; assay type: in vivo, Zea mays
In short: as §2

foxtail, giant = experiment: Test A postemergence; assay type: in vivo, Setaria faberii
In short: as §2

wheat [3] = experiment: Test A preemergence; assay type: in vivo, Triticum aestivum; conditions: preemergence
In short: as §2

ragweed [4] = experiment: Test C preemergence; assay type: in vivo, Ambrosia elation; conditions: for Plant response rating (scale of 0 to 100), Ragweed: Preemergence, 250 g ai/ha; for Ragweed plant response rating: preemergence
In short: as §1

wheat [5] = experiment: Test C postemergence; assay type: in vivo, Triticum aestivum; conditions: for Plant response rating (scale of 0 to 100 where 0 is no effect and 100 is complete control), Wheat: Postemergence, 31 g ai/ha, visually evaluated after 13 to 15 days; for Wheat plant response rating / Plant response rating, Wheat: postemergence; for Wheat plant response rating: 62 g ai/ha, scale 0 to 100
In short: as §1

soybean [6] = experiment: Test C postemergence; assay type: in vivo, Glycine max; conditions: for Plant response rating (scale of 0 to 100 where 0 is no effect and 100 is complete control), Soybean: Postemergence, 31 g ai/ha, visually evaluated after 13 to 15 days; for Soybean plant response rating / Plant response rating, Soybean: postemergence; for Soybean plant response rating: 62 g ai/ha, scale 0 to 100
In short: as §1

morningglory = experiment: Test A postemergence; assay type: in vivo, Ipomoea spp.
In short: as §2

soybean [7] = experiment: Test C preemergence; assay type: in vivo, Glycine max; conditions: for Plant response rating (scale of 0 to 100), Soybean: Preemergence, 250 g ai/ha; for Soybean plant response rating: preemergence
In short: as §1

corn [8] = experiment: Test C postemergence; assay type: in vivo, Zea mays; conditions: for Plant response rating (scale of 0 to 100 where 0 is no effect and 100 is complete control), Corn: Postemergence, 31 g ai/ha, visually evaluated after 13 to 15 days; for Corn plant response rating / Plant response rating, Corn: postemergence; for Corn plant response rating: 62 g ai/ha, scale 0 to 100
In short: as §1

crabgrass, large = experiment: Test A postemergence; assay type: in vivo, Digitaria sanguinalis
In short: as §2

velvetleaf [9] = experiment: Test C postemergence; assay type: in vivo, Abutilon theophrasti; conditions: for Plant response rating (scale of 0 to 100 where 0 is no effect and 100 is complete control), Velvetleaf: Postemergence, 31 g ai/ha, visually evaluated after 13 to 15 days; for Velvetleaf plant response rating / Plant response rating, Velvetleaf: postemergence; for Velvetleaf plant response rating: 62 g ai/ha, scale 0 to 100
In short: as §1

waterhemp = experiment: Test C postemergence; assay type: in vivo, Amaranthus rudis; conditions: for Plant response rating (scale of 0 to 100 where 0 is no effect and 100 is complete control), Waterhemp: Postemergence, 31 g ai/ha, visually evaluated after 13 to 15 days; for Waterhemp plant response rating / Plant response rating, Waterhemp: postemergence; for Waterhemp plant response rating: 62 g ai/ha, scale 0 to 100
In short: as §1

pigweed = experiment: Test C preemergence; assay type: in vivo, Amaranthus retroflexus; conditions: for Plant response rating (scale of 0 to 100), Pigweed: Preemergence, 250 g ai/ha; for Pigweed plant response rating: preemergence
In short: as §1

oilseed rape = experiment: Test C preemergence; assay type: in vivo, Brassica napus; conditions: for Plant response rating (scale of 0 to 100), Oilseed Rape: Preemergence, 250 g ai/ha; for Oilseed Rape plant response rating: preemergence
In short: as §1

ragweed [10] = experiment: Test C postemergence; assay type: in vivo, Ambrosia elation
In short: as §1

[11] = 250 g ai/ha, scale 0 to 100 (0 no effect, 100 complete control)
[12] = 125 g ai/ha, scale 0 to 100, 0 no effect, 100 complete control
[13] = Postemergence, 500 g ai/ha, visual rating after approx. 10 days, 0 to 100 scale (0 no effect, 100 complete control)
[14] = postemergence, 125 g ai/ha, about 10 days, visual rating on 0 to 100 scale (0 no effect, 100 complete control)
[15] = 125 g ai/ha, visual injury, 0 to 100 scale, approx. 10 days
[16] = 500 g ai/ha, visual injury after approx. 10 days, 0 to 100 scale (0 no effect, 100 complete control)
[17] = 31 g ai/ha, visual rating, scale 0 to 100 (0 no effect, 100 complete control), 13 to 15 days
[18] = 62 g ai/ha, scale 0 to 100 (0 no effect, 100 complete control), 13 to 15 days
[19] = 125 g ai/ha, scale 0 to 100, 0 is no effect, 100 is complete control
[20] = postemergence, 250 g ai/ha, scale 0 to 100 (0 no effect, 100 complete control)

SMILES: CCc1cc(C(=O)NCC(F)(F)F)nn1Cc1cc(C(F)(F)F)nn1C [Compound 108, 5-ethyl-1-[[1-methyl-3-(trifluoromethyl)-1H-pyrazole-5-yl]methyl]-N-(2,2,2-trifluoroethyl)-1H-pyrazole-3-carboxamide]
- Plant response rating (scale of 0 to 100 where 0 is no effect and 100 is complete control), Lambsquarters (lambsquarters): 60
- Lambsquarters plant response rating (lambsquarters): 60
- Plant response rating, Lambsquarters (lambsquarters; [11]): 85
- Plant response rating, Lambsquarters (lambsquarters; [12]): 80
- Velvetleaf plant response rating (velvetleaf [1]; [13]): 100
- Velvetleaf plant response rating (velvetleaf [1]; [14]): 60
- Corn plant response rating (corn [2]; [13]): 100
- Corn plant response rating (corn [2]; [14]): 80
- Foxtail, Giant plant response rating (foxtail, giant; [13]): 100
- Foxtail, Giant plant response rating (foxtail, giant; [14]): 90
- Wheat plant response rating (wheat [3]; [15]): 10
- Wheat plant response rating (wheat [3]; [16]): 100
- Plant response rating (scale of 0 to 100), Ragweed (ragweed [4]): 100
- Ragweed plant response rating (ragweed [4]; [17]): 95
- Ragweed plant response rating (ragweed [4]; [18]): 95
- Ragweed plant response rating (ragweed [4]; [19]): 95
- Plant response rating (scale of 0 to 100 where 0 is no effect and 100 is complete control), Wheat (wheat [5]): 0
- Wheat plant response rating (wheat [5]): 5
- Plant response rating, Wheat (wheat [5]; [11]): 20
- Plant response rating, Wheat (wheat [5]; [12]): 10
- Plant response rating (scale of 0 to 100 where 0 is no effect and 100 is complete control), Soybean (soybean [6]): 30
- Soybean plant response rating (soybean [6]): 90
- Plant response rating, Soybean (soybean [6]; [11]): 98
- Plant response rating, Soybean (soybean [6]; [12]): 90
- Morningglory plant response rating (morningglory; [13]): 100
- Morningglory plant response rating (morningglory; [14]): 90
- Plant response rating (scale of 0 to 100), Soybean (soybean [7]): 98
- Soybean plant response rating (soybean [7]; [17]): 20
- Soybean plant response rating (soybean [7]; [18]): 90
- Soybean plant response rating (soybean [7]; [19]): 95
- Plant response rating (scale of 0 to 100 where 0 is no effect and 100 is complete control), Corn (corn [8]): 5
- Corn plant response rating (corn [8]): 5
- Plant response rating, Corn (corn [8]; [11]): 35
- Plant response rating, Corn (corn [8]; [12]): 15
- Crabgrass, Large plant response rating (crabgrass, large; [13]): 100
- Crabgrass, Large plant response rating (crabgrass, large; [14]): 90
- Plant response rating (scale of 0 to 100 where 0 is no effect and 100 is complete control), Velvetleaf (velvetleaf [9]): 5
- Velvetleaf plant response rating (velvetleaf [9]): 10
- Plant response rating, Velvetleaf (velvetleaf [9]; [11]): 40
- Plant response rating, Velvetleaf (velvetleaf [9]; [12]): 35
- Plant response rating (scale of 0 to 100 where 0 is no effect and 100 is complete control), Waterhemp (waterhemp): 5
- Waterhemp plant response rating (waterhemp): 50
- Plant response rating, Waterhemp (waterhemp; [11]): 80
- Plant response rating, Waterhemp (waterhemp; [12]): 50
- Plant response rating (scale of 0 to 100), Pigweed (pigweed): 100
- Pigweed plant response rating (pigweed; [17]): 100
- Pigweed plant response rating (pigweed; [18]): 100
- Pigweed plant response rating (pigweed; [19]): 100
- Plant response rating (scale of 0 to 100), Oilseed Rape (oilseed rape): 100
- Oilseed Rape plant response rating (oilseed rape; [17]): 90
- Oilseed Rape plant response rating (oilseed rape; [18]): 98
- Oilseed Rape plant response rating (oilseed rape; [19]): 100
- Plant response rating (scale of 0 to 100 where 0 is no effect and 100 is complete control), Ragweed (ragweed [10]; Postemergence, 31 g ai/ha, visually evaluated after 13 to 15 days): 10
- Ragweed plant response rating (ragweed [10]; postemergence, 62 g ai/ha, scale 0 to 100): 50
- Plant response rating, Ragweed (ragweed [10]; [20]): 85
- Plant response rating, Ragweed (ragweed [10]; postemergence, 125 g ai/ha, scale 0 to 100, 0 no effect, 100 complete control): 50

SMILES: CCCNC(=O)c1cc(CC)n(Cc2nc(C(F)(F)F)nn2C)n1 [Compound 109]
- Plant response rating (scale of 0 to 100 where 0 is no effect and 100 is complete control), Lambsquarters (lambsquarters): 45
- Lambsquarters plant response rating (lambsquarters): 45
- Plant response rating, Lambsquarters (lambsquarters; [11]): 85
- Plant response rating, Lambsquarters (lambsquarters; [12]): 65
- Velvetleaf plant response rating (velvetleaf [1]; [13]): 90
- Velvetleaf plant response rating (velvetleaf [1]; [14]): 60
- Corn plant response rating (corn [2]; [13]): 90
- Corn plant response rating (corn [2]; [14]): 80
- Foxtail, Giant plant response rating (foxtail, giant; [13]): 90
- Foxtail, Giant plant response rating (foxtail, giant; [14]): 90
- Wheat plant response rating (wheat [3]; [15]): 30
- Wheat plant response rating (wheat [3]; [16]): 90
- Plant response rating (scale of 0 to 100), Ragweed (ragweed [4]): 100
- Ragweed plant response rating (ragweed [4]; [17]): 100
- Ragweed plant response rating (ragweed [4]; [18]): 100
- Ragweed plant response rating (ragweed [4]; [19]): 100
- Plant response rating (scale of 0 to 100 where 0 is no effect and 100 is complete control), Wheat (wheat [5]): 0
- Wheat plant response rating (wheat [5]): 0
- Plant response rating, Wheat (wheat [5]; [11]): 0
- Plant response rating, Wheat (wheat [5]; [12]): 0
- Plant response rating (scale of 0 to 100 where 0 is no effect and 100 is complete control), Soybean (soybean [6]): 55
- Soybean plant response rating (soybean [6]): 60
- Plant response rating, Soybean (soybean [6]; [11]): 75
- Plant response rating, Soybean (soybean [6]; [12]): 75
- Morningglory plant response rating (morningglory; [13]): 100
- Morningglory plant response rating (morningglory; [14]): 90
- Plant response rating (scale of 0 to 100), Soybean (soybean [7]): 98
- Soybean plant response rating (soybean [7]; [17]): 70
- Soybean plant response rating (soybean [7]; [18]): 95
- Soybean plant response rating (soybean [7]; [19]): 98
- Plant response rating (scale of 0 to 100 where 0 is no effect and 100 is complete control), Corn (corn [8]): 5
- Corn plant response rating (corn [8]): 10
- Plant response rating, Corn (corn [8]; [11]): 15
- Plant response rating, Corn (corn [8]; [12]): 15
- Crabgrass, Large plant response rating (crabgrass, large; [13]): 90
- Crabgrass, Large plant response rating (crabgrass, large; [14]): 90
- Plant response rating (scale of 0 to 100 where 0 is no effect and 100 is complete control), Velvetleaf (velvetleaf [9]): 10
- Velvetleaf plant response rating (velvetleaf [9]): 15
- Plant response rating, Velvetleaf (velvetleaf [9]; [11]): 35
- Plant response rating, Velvetleaf (velvetleaf [9]; [12]): 25
- Plant response rating (scale of 0 to 100 where 0 is no effect and 100 is complete control), Waterhemp (waterhemp): 35
- Waterhemp plant response rating (waterhemp): 35
- Plant response rating, Waterhemp (waterhemp; [11]): 75
- Plant response rating, Waterhemp (waterhemp; [12]): 60
- Plant response rating (scale of 0 to 100), Pigweed (pigweed): 100
- Pigweed plant response rating (pigweed; [17]): 70
- Pigweed plant response rating (pigweed; [18]): 100
- Pigweed plant response rating (pigweed; [19]): 100
- Plant response rating (scale of 0 to 100), Oilseed Rape (oilseed rape): 100
- Oilseed Rape plant response rating (oilseed rape; [17]): 40
- Oilseed Rape plant response rating (oilseed rape; [18]): 100
- Oilseed Rape plant response rating (oilseed rape; [19]): 100
- Plant response rating, Ragweed (ragweed [10]; [20]): 80
